Experimental data published in US20240116910A1, “Heterocycles as WIP1 Inhibitors” (PMV Pharmaceuticals, Inc., priority 2022, published 2024).

Tests used:
[1] = target: recombinant His-tag Wip1(2-420) protein (amino acids #2-420) (Homo sapiens (Human), UniProt O15297); assay: Wip1(2-420) phosphatase enzyme FDP assay; assay type: biochemical; conditions: fluorescein diphosphate (FDP) substrate, RT 2 hours, fluorescence Ex485/Em535; read-out: WIP1 (Truncated 2-420) FDP Assay: IC50
[2] = target: recombinant His-tag Wip1 full length protein (amino acids #1-605) (Homo sapiens (Human), UniProt O15297); assay: Wip1 full length phosphatase enzyme FDP assay; assay type: biochemical; conditions: fluorescein diphosphate (FDP) substrate, RT 2 hours, fluorescence Ex485/Em535
recombinant His-tag Wip1 full length protein (amino acids #1-605), sequence (O15297 whole entry): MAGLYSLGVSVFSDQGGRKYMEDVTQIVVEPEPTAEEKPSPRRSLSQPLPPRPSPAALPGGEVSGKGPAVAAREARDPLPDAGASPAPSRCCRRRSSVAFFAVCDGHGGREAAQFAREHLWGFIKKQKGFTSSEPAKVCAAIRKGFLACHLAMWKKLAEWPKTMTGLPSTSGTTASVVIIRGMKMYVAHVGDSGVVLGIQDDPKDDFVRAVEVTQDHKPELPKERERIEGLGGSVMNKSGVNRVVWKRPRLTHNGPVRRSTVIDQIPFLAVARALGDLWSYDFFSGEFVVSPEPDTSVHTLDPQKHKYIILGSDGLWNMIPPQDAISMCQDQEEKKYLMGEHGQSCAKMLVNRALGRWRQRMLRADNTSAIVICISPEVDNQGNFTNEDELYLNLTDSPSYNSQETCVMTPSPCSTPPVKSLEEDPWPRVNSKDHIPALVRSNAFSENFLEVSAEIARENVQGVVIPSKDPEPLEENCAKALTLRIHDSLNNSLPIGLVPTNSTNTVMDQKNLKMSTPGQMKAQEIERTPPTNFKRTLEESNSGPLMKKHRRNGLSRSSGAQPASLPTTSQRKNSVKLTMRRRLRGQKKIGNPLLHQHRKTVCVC

recombinant His-tag Wip1(2-420) protein (amino acids #2-420), sequence (O15297 2-420): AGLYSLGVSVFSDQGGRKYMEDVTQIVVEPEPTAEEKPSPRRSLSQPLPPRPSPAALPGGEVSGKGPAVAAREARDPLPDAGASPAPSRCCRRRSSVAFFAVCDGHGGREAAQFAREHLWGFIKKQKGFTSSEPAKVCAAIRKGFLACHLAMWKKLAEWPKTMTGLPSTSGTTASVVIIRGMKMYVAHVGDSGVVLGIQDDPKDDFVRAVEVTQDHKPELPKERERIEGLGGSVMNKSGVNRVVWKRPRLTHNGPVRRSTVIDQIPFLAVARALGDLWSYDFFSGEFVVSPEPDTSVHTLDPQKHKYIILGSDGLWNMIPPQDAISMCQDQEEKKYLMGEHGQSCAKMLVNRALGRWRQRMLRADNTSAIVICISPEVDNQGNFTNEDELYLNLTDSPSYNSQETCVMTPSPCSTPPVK

Row | IC50 [1] [nM] | IC50 [2] [nM] | SMILES
1 | 59 | 16 | C[C@@H](Nc1cccc(Cl)c1)c1ncc(C(=O)N[C@@H](CC2CCCC2)C(=O)NC2CC2)s1 [Compound 125, (2S)-2-({2-[(1R)-1-[(3-chlorophenyl)amino]ethyl]-1,3-thiazol-5-yl}formamido)-3-cyclopentyl-N-cyclopropylpropanamide]
2 | 4 | 9 | COc1cc(NC(=O)[C@H](CC2CCCC2)NC(=O)c2ccc([C@H](C)Nc3cc(Cl)cnc3C)s2)ccn1 [Compound 156, (2S)-2-({5-[(1S)-1-[(5-chloro-2-methylpyridin-3-yl)amino]ethyl]thiophen-2-yl}formamido)-3-cyclopentyl-N-(2-methoxypyridin-4-yl)propanamide]
3 | 9 | 13 | Cc1ncc(Cl)cc1N[C@@H](C)c1ccc(C(=O)N[C@@H](CCC(C)(C)C)C(=O)Nc2cnn(C)c2)s1 [Compound 160, (2S)-2-({5-[(1S)-1-[(5-chloro-2-methylpyridin-3-yl)amino]ethyl]thiophen-2-yl}formamido)-5,5-dimethyl-N-(1-methyl-1H-pyrazol-4-yl)hexanamide]
4 | 6 | 8 | CCn1cc(NC(=O)[C@H](CC2CCCC2)NC(=O)c2ccc([C@H](C)Nc3cc(Cl)cnc3C)s2)cn1 [Compound 162, (2S)-2-({5-[(1S)-1-[(5-chloro-2-methylpyridin-3-yl)amino]ethyl]thiophen-2-yl}formamido)-3-cyclopentyl-N-(1-ethyl-1H-pyrazol-4-yl)propanamide]
5 | 5 | 8 | Cc1ncc(Cl)cc1N[C@@H](C)c1ccc(C(=O)N[C@@H](CC2CCCC2)C(=O)Nc2cnn(C3CCOCC3)c2)s1 [Compound 163, (2S)-2-({5-[(1S)-1-[(5-chloro-2-methylpyridin-3-yl)amino]ethyl]thiophen-2-yl}formamido)-3-cyclopentyl-N-[1-(oxan-4-yl)-1H-pyrazol-4-yl]propanamide]
6 | 11 | 15 | Cc1ncc(Cl)cc1N[C@@H](C)c1ccc(C(=O)N[C@@H](CC2CCCC2)C(=O)Nc2ccc3c(c2)CCCN3C)s1 [Compound 168, (2S)-2-({5-[(1S)-1-[(5-chloro-2-methylpyridin-3-yl)amino]ethyl]thiophen-2-yl}formamido)-3-cyclopentyl-N-(1-methyl-1,2,3,4-tetrahydroquinolin-6-yl)propanamide]
7 | 7 | 10 | Cc1ncc(Cl)cc1N[C@@H](Cc1cnn(C)c1)c1ccc(C(=O)N[C@@H](CC2CCCC2)C(=O)NC2CC2)s1 [Compound 171, (2S)-2-({5-[(1S)-1-[(5-chloro-2-methylpyridin-3-yl)amino]-2-(1-methyl-1H-pyrazol-4-yl)ethyl]thiophen-2-yl}formamido)-3-cyclopentyl-N-cyclopropylpropanamide]
8 | 13 | 15 | Cc1cc(NC(=O)[C@@H](NC(=O)c2ccc([C@H](C)Nc3cc(Cl)cnc3C)s2)C2CCCCC2)ccn1 [Compound 175, (2S)-2-({5-[(1S)-1-[(5-chloro-2-methylpyridin-3-yl)amino]ethyl]thiophen-2-yl}formamido)-2-cyclohexyl-N-(2-methylpyridin-4-yl)acetamide]
9 | 18 | 23 | Cc1ncc(Cl)cc1N[C@@H](C)c1ccc(C(=O)N[C@H](C(=O)Nc2cnn(C)c2)C2CCCCC2)s1 [Compound 177, (2S)-2-({5-[(1S)-1-[(5-chloro-2-methylpyridin-3-yl)amino]ethyl]thiophen-2-yl}formamido)-2-cyclohexyl-N-(1-methyl-1H-pyrazol-4-yl)acetamide]
10 | 7 | 10 | Cc1cc(NC(=O)[C@H](CCC(C)C)NC(=O)c2ccc([C@H](C)Nc3cc(Cl)cnc3C)s2)ccn1 [Compound 210, (2S)-2-({5-[(1S)-1-[(5-chloro-2-methylpyridin-3-yl)amino]ethyl]thiophen-2-yl}formamido)-5-methyl-N-(2-methylpyridin-4-yl)hexanamide]
11 | 19 | 30 | Cc1ncc(Cl)cc1N[C@@H](C)c1ncc(C(=O)N[C@@H](CC2CCCC2)C(=O)NC23CC(C2)C3)s1 [Compound 278, (2S)-N-{bicyclo[1.1.1]pentan-1-yl}-2-({2-[(1S)-1-[(5-chloro-2-methylpyridin-3-yl)amino]ethyl]-1,3-thiazol-5-yl}formamido)-3-cyclopentylpropanamide]
12 | 41 | 53 | Cc1ncc(Cl)cc1N[C@@H](C)c1ncc(C(=O)N[C@@H](CC2CCCC2)C(=O)NC2CC2)s1 [Compound 279, (2S)-2-({2-[(1S)-1-[(5-chloro-2-methylpyridin-3-yl)amino]ethyl]-1,3-thiazol-5-yl}formamido)-3-cyclopentyl-N-cyclopropylpropanamide]
13 | 41 | 70 | Cc1ncc(Cl)cc1NC(C)c1ncc(C(=O)N[C@@H](CC2CCCC2)C(=O)NC2CC2)s1 (stereo partly drawn) [Compound 280, (2S)-2-[(2-{1-[(5-chloro-2-methylpyridin-3-yl)amino]ethyl}-1,3-thiazol-5-yl)formamido]-3-cyclopentyl-N-cyclopropylpropanamide]
14 | 6 | 14 | CN(Cc1ncc(C(=O)N[C@@H](CC2CCCCC2)C(=O)Nc2ccncc2)s1)c1cncc(Cl)c1 [Compound 287, 2-[[(5-chloro-3-pyridyl)-methyl-amino]methyl]-N-[(1S)-1-(cyclohexylmethyl)-2-oxo-2-(4-pyridylamino)ethyl]thiazole-5-carboxamide]
15 | 31 | 11 | CN(Cc1ccc(C(=O)N[C@@H](CC2CCCCC2)C(=O)NC2CCC(N(C)C)CC2)s1)c1cncc(Cl)c1 (stereo partly drawn) [Compound 298, 5-[[(5-chloro-3-pyridyl)-methyl-amino]methyl]-N-[(1S)-1-(cyclohexylmethyl)-2-[[4-(dimethylamino)cyclohexyl]amino]-2-oxo-ethyl]thiophene-2-carboxamide]
16 | 6 | 15 | Cc1ncc(Cl)cc1NCc1ncc(C(=O)N[C@@H](CC2CCCCC2)C(=O)Nc2ccncc2)s1 [Compound 300, 2-[[(5-chloro-2-methyl-3-pyridyl)amino]methyl]-N-[(1S)-1-(cyclohexylmethyl)-2-oxo-2-(4-pyridylamino)ethyl]thiazole-5-carboxamide]
17 | 42 | 23 | CN(Cc1ncc(C(=O)N[C@@H](CC2CCCCC2)C(=O)Nc2ccncc2)s1)c1cncc(Cl)c1 [Compound 301, 2-[[(5-Chloro-3-pyridyl)-methyl-amino]methyl]-N-[(1S)-1-(cyclohexylmethyl)-2-oxo-2-(4-pyridylamino)ethyl]thiazole-5-carboxamide]
18 | 55 | 15 | O=C(N[C@@H](CC1CCCCC1)C(=O)Nc1ccccn1)c1cnc(CNc2cncc(Cl)c2)s1 [Compound 302, 2-[[(5-chloro-3-pyridyl)amino]methyl]-N-[(1S)-1-(cyclohexylmethyl)-2-oxo-2-(2-pyridylamino)ethyl]thiazole-5-carboxamide]
19 | 67 | 67 | CN(Cc1ncc(C(=O)N[C@@H](CC2CCCCC2)C(=O)N[C@H]2CC[C@H](N(C)C)CC2)s1)c1cncc(Cl)c1 [Compound 303, 2-[[(5-chloro-3-pyridyl)-methyl-amino]methyl]-N-[(1S)-1-(cyclohexylmethyl)-2-[[4-(dimethylamino)cyclohexyl]amino]-2-oxo-ethyl]thiazole-5-carboxamide]

Row | SMILES | IC50 [1] [nM] | IC50 [2] [nM]
20 | O=C(N[C@@H](CC1CCCCC1)C(=O)NC1CCOCC1)c1cnc(CNc2ccnc(C(F)(F)F)c2)s1 [Compound 305, N-[(1S)-1-(cyclohexylmethyl)-2-oxo-2-(tetrahydropyran-4-ylamino)ethyl]-2-[[[2-(trifluoromethyl)-4-pyridyl]amino]methyl]thiazole-5-carboxamide] | 90 | 31
21 | O=C(N[C@@H](CC1CCCCC1)C(=O)NC1CC1)c1cnc(CN2CCc3ccc(C(F)(F)F)cc32)s1 [Compound 306, N-[(1S)-1-(cyclohexylmethyl)-2-(cyclopropylamino)-2-oxo-ethyl]-2-[[6-(trifluoromethyl)indolin-1-yl]methyl]thiazole-5-carboxamide] | 83 | 38
